Experimental data from ChEMBL document CHEMBL3885861, “Open TG-GATES”.

Organism: Rattus norvegicus
Test: Open TG-GATES - Regimen: Daily Repeat
Type: toxicity, organism-based, Sprague-Dawley
Set-up: regimen Daily Repeat, gender Male, age 6 weeks
Conditions: in vivo, po, route gavage; for APTT / Bas / Eos / Fbg / Hb / Ht / Lym / MCH / MCHC / MCV / Mono / Neu / PT / Plat / RBC / Ret / WBC: tissue Blood; for KIDNEY_L / KIDNEY_R / KIDNEY_TOTAL: tissue Kidney; for LIVER: tissue Liver; for A/G / ALP / ALT / AST / BUN / CRE / Ca / Cl / DBIL / GLC / IP / K / LDH / Na / PL / RALB / TBIL / TC / TG / TP / gamma-GTP: tissue Plasma
[1] = 300 mg/kg, 72 h, dose level Middle, time 3 day
[2] = 300 mg/kg, […], dose level Middle, time 7 day
[3] = 300 mg/kg, […], dose level Middle, time 14 day
[4] = 300 mg/kg, […], dose level Middle, time 28 day
[5] = 1000 mg/kg, 72 h, dose level High, time 3 day
[6] = 1000 mg/kg, […], dose level High, time 7 day
[7] = 1000 mg/kg, […], dose level High, time 14 day
[8] = 1000 mg/kg, […], dose level High, time 28 day

CC(S)C(=O)NCC(=O)O (centres undefined) [TIOPRONIN]
TERMINAL_BW [1]: 224.5 g
APTT [1]: 22.4 s
Bas [1]: 0%
Eos [1]: 0.8%
Fbg [1]: 299 mg/dL
Hb [1]: 13.5 g/dL
Ht [1]: 40%
Lym [1]: 78.4%
MCH [1]: 21.1 pg
MCHC [1]: 33.6%
MCV [1]: 62.7 fL
Mono [1]: 2.4%
Neu [1]: 17.2%
PT [1]: 15.2 s
Plat [1]: 132 x10_4/uL
RBC [1]: 639.8 x10_4/ul
Ret [1]: 7.5%
WBC [1]: 96 x10_2/uL
KIDNEY_L [1]: 1 g
KIDNEY_R [1]: 1 g
KIDNEY_TOTAL [1]: 2 g
LIVER [1]: 10.7 g
A/G [1]: 1.2
ALP [1]: 1564.4 IU/L
ALT [1]: 42 IU/L
AST [1]: 75.2 IU/L
BUN [1]: 16 mg/dL
CRE [1]: 0.2 mg/dL
Ca [1]: 10.6 mg/dL
Cl [1]: 105.8 meq/L
DBIL [1]: 0 mg/dL
GLC [1]: 187.4 mg/dL
IP [1]: 7.3 mg/dL
K [1]: 4.4 meq/L
LDH [1]: 205.6 IU/L
Na [1]: 140.4 meq/L
PL [1]: 131.4 mg/dL
RALB [1]: 3 g/dL
TBIL [1]: 0.008 mg/dL
TC [1]: 73.4 mg/dL
TG [1]: 71.2 mg/dL
TP [1]: 5.5 g/dL
gamma-GTP [1]: 1.4 IU/L
TERMINAL_BW [2]: 258 g
TERMINAL_BW [3]: 313.9 g
TERMINAL_BW [4]: 381.6 g
APTT [2]: 22.2 s
Bas [2]: 0%
Eos [2]: 1.2%
Fbg [2]: 330.4 mg/dL
Hb [2]: 14 g/dL
Ht [2]: 40.4%
Lym [2]: 77.6%
MCH [2]: 21.7 pg
MCHC [2]: 34.9%
MCV [2]: 62.1 fL
Mono [2]: 2.4%
Neu [2]: 18%
PT [2]: 15.3 s
Plat [2]: 121.4 x10_4/uL
RBC [2]: 649.6 x10_4/ul
Ret [2]: 6.4%
WBC [2]: 101.8 x10_2/uL
APTT [3]: 23.7 s
Bas [3]: 0%
Eos [3]: 1%
Fbg [3]: 287.6 mg/dL
Hb [3]: 14 g/dL
Ht [3]: 41.2%
Lym [3]: 83%
MCH [3]: 20.3 pg
MCHC [3]: 33.9%
MCV [3]: 59.7 fL
Mono [3]: 2.2%
Neu [3]: 13.2%
PT [3]: 15.5 s
Plat [3]: 109.8 x10_4/uL
RBC [3]: 689.8 x10_4/ul
Ret [3]: 5%
WBC [3]: 142 x10_2/uL
APTT [4]: 24.6 s
Bas [4]: 0%
Eos [4]: 1%
Fbg [4]: 323.4 mg/dL
Hb [4]: 15.4 g/dL
Ht [4]: 43.3%
Lym [4]: 82.6%
MCH [4]: 20.1 pg
MCHC [4]: 35.5%
MCV [4]: 56.6 fL
Mono [4]: 2%
Neu [4]: 12.6%
PT [4]: 16.1 s
Plat [4]: 95.9 x10_4/uL
RBC [4]: 764.2 x10_4/ul
Ret [4]: 2.6%
WBC [4]: 146.8 x10_2/uL
KIDNEY_L [2]: 1.1 g
KIDNEY_R [2]: 1.1 g
KIDNEY_TOTAL [2]: 2.2 g
KIDNEY_L [3]: 1.2 g
KIDNEY_R [3]: 1.2 g
KIDNEY_TOTAL [3]: 2.5 g
KIDNEY_L [4]: 1.4 g
KIDNEY_R [4]: 1.4 g
KIDNEY_TOTAL [4]: 2.9 g
LIVER [2]: 12 g
LIVER [3]: 13.9 g
LIVER [4]: 16.5 g
A/G [2]: 1.1
ALP [2]: 1316.6 IU/L
ALT [2]: 36 IU/L
AST [2]: 63.4 IU/L
BUN [2]: 15.8 mg/dL
CRE [2]: 0.1 mg/dL
Ca [2]: 10.6 mg/dL
Cl [2]: 106.6 meq/L
DBIL [2]: 0 mg/dL
GLC [2]: 186.4 mg/dL
IP [2]: 7.3 mg/dL
K [2]: 4.3 meq/L
LDH [2]: 150.2 IU/L
Na [2]: 140.6 meq/L
PL [2]: 144.6 mg/dL
RALB [2]: 2.9 g/dL
TBIL [2]: 0 mg/dL
TC [2]: 70.6 mg/dL
TG [2]: 146.2 mg/dL
TP [2]: 5.5 g/dL
gamma-GTP [2]: 1.8 IU/L
A/G [3]: 1.3
ALP [3]: 1441.2 IU/L
ALT [3]: 43.8 IU/L
AST [3]: 65.8 IU/L
BUN [3]: 20.4 mg/dL
CRE [3]: 0.2 mg/dL
Ca [3]: 10.6 mg/dL
Cl [3]: 106.8 meq/L
DBIL [3]: 0 mg/dL
GLC [3]: 194.6 mg/dL
IP [3]: 6.5 mg/dL
K [3]: 4.4 meq/L
LDH [3]: 143.4 IU/L
Na [3]: 140.8 meq/L
PL [3]: 151.8 mg/dL
RALB [3]: 3.1 g/dL
TBIL [3]: 0.004 mg/dL
TC [3]: 70.8 mg/dL
TG [3]: 155 mg/dL
TP [3]: 5.6 g/dL
gamma-GTP [3]: 2.2 IU/L
A/G [4]: 1.2
ALP [4]: 1229.6 IU/L
ALT [4]: 42.6 IU/L
AST [4]: 64.6 IU/L
BUN [4]: 18.6 mg/dL
CRE [4]: 0.2 mg/dL
Ca [4]: 10.9 mg/dL
Cl [4]: 106 meq/L
DBIL [4]: 0 mg/dL
GLC [4]: 192.4 mg/dL
IP [4]: 6.5 mg/dL
K [4]: 4.1 meq/L
LDH [4]: 154.2 IU/L
Na [4]: 143 meq/L
PL [4]: 142 mg/dL
RALB [4]: 3.3 g/dL
TBIL [4]: 0.016 mg/dL
TC [4]: 72 mg/dL
TG [4]: 127.6 mg/dL
TP [4]: 6.1 g/dL
gamma-GTP [4]: 1.8 IU/L
TERMINAL_BW [5]: 223.7 g
APTT [5]: 23.7 s
Bas [5]: 0%
Eos [5]: 1.2%
Fbg [5]: 288 mg/dL
Hb [5]: 13 g/dL
Ht [5]: 39.2%
Lym [5]: 73.8%
MCH [5]: 20.8 pg
MCHC [5]: 33.2%
MCV [5]: 62.7 fL
Mono [5]: 3.6%
Neu [5]: 20.8%
PT [5]: 15.8 s
Plat [5]: 113.1 x10_4/uL
RBC [5]: 626.6 x10_4/ul
Ret [5]: 6.9%
WBC [5]: 105.8 x10_2/uL
KIDNEY_L [5]: 1 g
KIDNEY_R [5]: 1 g
KIDNEY_TOTAL [5]: 2 g
LIVER [5]: 10.7 g
A/G [5]: 1.3
ALP [5]: 1581.6 IU/L
ALT [5]: 49.2 IU/L
AST [5]: 77.2 IU/L
BUN [5]: 15.2 mg/dL
CRE [5]: 0.2 mg/dL
Ca [5]: 10.7 mg/dL
Cl [5]: 105.8 meq/L
DBIL [5]: 0.002 mg/dL
GLC [5]: 186.2 mg/dL
IP [5]: 7.8 mg/dL
K [5]: 4.4 meq/L
LDH [5]: 173.4 IU/L
Na [5]: 140.8 meq/L
PL [5]: 131 mg/dL
RALB [5]: 2.9 g/dL
TBIL [5]: 0.014 mg/dL
TC [5]: 68.6 mg/dL
TG [5]: 83.4 mg/dL
TP [5]: 5.2 g/dL
gamma-GTP [5]: 1.8 IU/L
TERMINAL_BW [6]: 254.3 g
TERMINAL_BW [7]: 296.9 g
TERMINAL_BW [8]: 364.7 g
APTT [6]: 21.9 s
Bas [6]: 0%
Eos [6]: 1%
Fbg [6]: 297 mg/dL
Hb [6]: 13.4 g/dL
Ht [6]: 39.6%
Lym [6]: 77%
MCH [6]: 21.4 pg
MCHC [6]: 33.8%
MCV [6]: 63.3 fL
Mono [6]: 2.6%
Neu [6]: 18.8%
PT [6]: 15.4 s
Plat [6]: 122.7 x10_4/uL
RBC [6]: 626 x10_4/ul
Ret [6]: 6.8%
WBC [6]: 115.2 x10_2/uL
APTT [7]: 24.7 s
Bas [7]: 0%
Eos [7]: 0.8%
Fbg [7]: 266.2 mg/dL
Hb [7]: 13.9 g/dL
Ht [7]: 41.1%
Lym [7]: 81.2%
MCH [7]: 20.8 pg
MCHC [7]: 33.7%
MCV [7]: 61.7 fL
Mono [7]: 2.4%
Neu [7]: 14.4%
PT [7]: 15.9 s
Plat [7]: 124 x10_4/uL
RBC [7]: 666.8 x10_4/ul
Ret [7]: 5.2%
WBC [7]: 129.5 x10_2/uL
APTT [8]: 24.2 s
Bas [8]: 0%
Eos [8]: 1.2%
Fbg [8]: 300.8 mg/dL
Hb [8]: 15 g/dL
Ht [8]: 42.6%
Lym [8]: 79%
MCH [8]: 19.2 pg
MCHC [8]: 35.3%
MCV [8]: 54.5 fL
Mono [8]: 1.8%
Neu [8]: 16.2%
PT [8]: 16.1 s
Plat [8]: 98.3 x10_4/uL
RBC [8]: 781.4 x10_4/ul
Ret [8]: 3.1%
WBC [8]: 124 x10_2/uL
KIDNEY_L [6]: 1.1 g
KIDNEY_R [6]: 1.2 g
KIDNEY_TOTAL [6]: 2.3 g
KIDNEY_L [7]: 1.3 g
KIDNEY_R [7]: 1.3 g
KIDNEY_TOTAL [7]: 2.6 g
KIDNEY_L [8]: 1.5 g
KIDNEY_R [8]: 1.5 g
KIDNEY_TOTAL [8]: 3 g
LIVER [6]: 12.3 g
LIVER [7]: 13.3 g
LIVER [8]: 15.3 g
A/G [6]: 1.2
ALP [6]: 1407 IU/L
ALT [6]: 45 IU/L
AST [6]: 67.8 IU/L
BUN [6]: 18.4 mg/dL
CRE [6]: 0.1 mg/dL
Ca [6]: 10.8 mg/dL
Cl [6]: 105.4 meq/L
DBIL [6]: 0 mg/dL
GLC [6]: 177.2 mg/dL
IP [6]: 7.9 mg/dL
K [6]: 4.6 meq/L
LDH [6]: 181.4 IU/L
Na [6]: 140 meq/L
PL [6]: 132.6 mg/dL
RALB [6]: 2.9 g/dL
TBIL [6]: 0.006 mg/dL
TC [6]: 67.8 mg/dL
TG [6]: 90.8 mg/dL
TP [6]: 5.2 g/dL
gamma-GTP [6]: 1.8 IU/L
A/G [7]: 1.3
ALP [7]: 1175.6 IU/L
ALT [7]: 41.6 IU/L
AST [7]: 70.4 IU/L
BUN [7]: 23 mg/dL
CRE [7]: 0.2 mg/dL
Ca [7]: 10.5 mg/dL
Cl [7]: 105 meq/L
DBIL [7]: 0 mg/dL
GLC [7]: 182.6 mg/dL
IP [7]: 7 mg/dL
K [7]: 4.4 meq/L
LDH [7]: 182.6 IU/L
Na [7]: 140.2 meq/L
PL [7]: 125.4 mg/dL
RALB [7]: 3.1 g/dL
TBIL [7]: 0.01 mg/dL
TC [7]: 60 mg/dL
TG [7]: 120.2 mg/dL
TP [7]: 5.6 g/dL
gamma-GTP [7]: 2 IU/L
A/G [8]: 1.2
ALP [8]: 1066 IU/L
ALT [8]: 49.2 IU/L
AST [8]: 71.4 IU/L
BUN [8]: 17 mg/dL
CRE [8]: 0.2 mg/dL
Ca [8]: 10.9 mg/dL
Cl [8]: 104.2 meq/L
DBIL [8]: 0 mg/dL
GLC [8]: 180 mg/dL
IP [8]: 7.5 mg/dL
K [8]: 4 meq/L
LDH [8]: 154.6 IU/L
Na [8]: 142.6 meq/L
PL [8]: 135 mg/dL
RALB [8]: 3.2 g/dL
TBIL [8]: 0.03 mg/dL
TC [8]: 63 mg/dL
TG [8]: 106.2 mg/dL
TP [8]: 5.8 g/dL
gamma-GTP [8]: 2 IU/L
